Measured values as given in patent US11033539B2, “Compounds of formulas (VII), (VIII), (IX), (XI), (XII), (XIII), and (XIV) as muscarinic receptor 4(M4) antagonists for treating neurological diseases” (Neurocrine Biosciences, Inc., priority 2015, dated 2021).

Experiments:
[1] = target: human M1 receptor (Homo sapiens (Human), UniProt P11229); test: Radioligand (tritiated N-methylscopolamine) binding assay, M1; conditions: CHO cell membranes expressing human M1; 1.5 nM tritiated N-methylscopolamine; 90 min, 37° C.; read-out: Ki against M1 receptor (Table 21, M1)
Sequence of human M1 receptor (P11229 whole entry): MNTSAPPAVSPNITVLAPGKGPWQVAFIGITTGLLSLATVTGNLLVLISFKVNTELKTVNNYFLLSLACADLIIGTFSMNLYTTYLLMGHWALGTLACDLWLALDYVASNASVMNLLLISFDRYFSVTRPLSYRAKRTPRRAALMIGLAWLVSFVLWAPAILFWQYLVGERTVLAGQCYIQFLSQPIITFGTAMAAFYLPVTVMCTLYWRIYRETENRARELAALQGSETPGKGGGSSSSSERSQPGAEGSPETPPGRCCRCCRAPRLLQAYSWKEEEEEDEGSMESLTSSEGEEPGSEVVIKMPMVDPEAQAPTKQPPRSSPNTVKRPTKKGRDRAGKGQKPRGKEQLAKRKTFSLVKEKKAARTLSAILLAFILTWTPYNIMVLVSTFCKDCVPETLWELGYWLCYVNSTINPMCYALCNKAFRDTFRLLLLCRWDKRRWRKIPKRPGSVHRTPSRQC
Protocol: (§1) Binding affinity (Ki) of compounds was measured by inhibition of radioligand binding to membranes from CHO cells expressing human M1, M2, M3, M4 and M5 receptors. Membranes were prepared by nitrogen cavitation and differential centrifugation as previously described (Hoare et al., Mol. Pharmacol. 2003 March; 63(3): 751-65). The radioligand employed was tritiated N-methylscopolamine, used at a concentration of 1.5 nM. A dose-response of twelve concentrations of compound was used, ranging from 10 μM to […]. The assay buffer was 50 mM HEPES, 100 mM NaCl, 5 mM MgCl2, 1 mM ethylenediaminetetraacetic acid, pH-adjusted to pH 7.4. Membranes, radioligand and compound were incubated together for 90 minutes at 37° C., in a total volume of 150 μl in a 96-well plate. Receptor-bound radioligand was then collected by harvesting the assay over glass fiber filters pretreated with polyethylenimine to trap the cell membranes, using rapid vacuum filtration. Harvesting and radioactivity counting was conducted as previously described (see, e.g., Hoare et al., Mol. Pharmacol. 2003 63(3):751-65); Erratum at Mol. Pharmacol. 2005 July; 68(1): 260).

[2] = target: human M2 receptor (Homo sapiens (Human), UniProt P08172); test: Radioligand (tritiated N-methylscopolamine) binding assay, M2; conditions: CHO cell membranes expressing human M2; 1.5 nM tritiated N-methylscopolamine; 90 min, 37° C.; read-out: Ki against M2 receptor (Table 21, M2)
Sequence of human M2 receptor (P08172 whole entry): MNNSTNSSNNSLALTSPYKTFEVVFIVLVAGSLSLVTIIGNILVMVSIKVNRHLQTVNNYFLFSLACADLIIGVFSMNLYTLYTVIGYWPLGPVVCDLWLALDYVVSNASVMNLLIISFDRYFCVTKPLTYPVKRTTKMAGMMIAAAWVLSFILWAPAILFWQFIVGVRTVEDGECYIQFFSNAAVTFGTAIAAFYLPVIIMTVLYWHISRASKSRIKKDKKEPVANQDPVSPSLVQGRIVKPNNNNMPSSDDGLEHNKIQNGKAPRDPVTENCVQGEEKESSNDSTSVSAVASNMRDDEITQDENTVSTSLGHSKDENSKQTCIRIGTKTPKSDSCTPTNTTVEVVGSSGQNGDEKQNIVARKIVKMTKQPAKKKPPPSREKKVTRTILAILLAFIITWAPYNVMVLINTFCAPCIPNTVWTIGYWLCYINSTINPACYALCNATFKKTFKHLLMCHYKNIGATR
Protocol: as §1

[3] = target: human M3 receptor (Homo sapiens (Human), UniProt P20309); test: Radioligand (tritiated N-methylscopolamine) binding assay, M3; conditions: CHO cell membranes expressing human M3; 1.5 nM tritiated N-methylscopolamine; 90 min, 37° C.; read-out: Ki against M3 receptor (Table 21, M3)
Sequence of human M3 receptor (P20309 whole entry): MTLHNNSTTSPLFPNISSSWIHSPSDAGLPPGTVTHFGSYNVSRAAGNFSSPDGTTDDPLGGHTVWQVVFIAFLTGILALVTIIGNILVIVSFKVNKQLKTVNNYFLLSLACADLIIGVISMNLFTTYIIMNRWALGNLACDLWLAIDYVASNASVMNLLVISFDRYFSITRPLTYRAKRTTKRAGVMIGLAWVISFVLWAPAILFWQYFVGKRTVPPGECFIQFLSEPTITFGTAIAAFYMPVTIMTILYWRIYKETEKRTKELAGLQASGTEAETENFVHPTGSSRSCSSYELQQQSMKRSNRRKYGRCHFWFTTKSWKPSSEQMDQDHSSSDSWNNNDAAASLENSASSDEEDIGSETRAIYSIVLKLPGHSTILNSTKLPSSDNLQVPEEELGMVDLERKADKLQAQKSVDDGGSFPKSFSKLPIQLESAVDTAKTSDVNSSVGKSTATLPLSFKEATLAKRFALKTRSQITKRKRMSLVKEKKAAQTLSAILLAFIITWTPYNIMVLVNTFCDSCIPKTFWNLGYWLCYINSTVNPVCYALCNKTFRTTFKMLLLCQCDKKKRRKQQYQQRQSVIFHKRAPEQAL
Protocol: as §1

[4] = target: human M4 receptor (Homo sapiens (Human), UniProt P08173); test: Radioligand (tritiated N-methylscopolamine) binding assay, M4; conditions: Ki against the M4 receptor; membranes from CHO cells expressing human M4; tritiated N-methylscopolamine 1.5 nM; read-out: Ki
Sequence of human M4 receptor (P08173 whole entry): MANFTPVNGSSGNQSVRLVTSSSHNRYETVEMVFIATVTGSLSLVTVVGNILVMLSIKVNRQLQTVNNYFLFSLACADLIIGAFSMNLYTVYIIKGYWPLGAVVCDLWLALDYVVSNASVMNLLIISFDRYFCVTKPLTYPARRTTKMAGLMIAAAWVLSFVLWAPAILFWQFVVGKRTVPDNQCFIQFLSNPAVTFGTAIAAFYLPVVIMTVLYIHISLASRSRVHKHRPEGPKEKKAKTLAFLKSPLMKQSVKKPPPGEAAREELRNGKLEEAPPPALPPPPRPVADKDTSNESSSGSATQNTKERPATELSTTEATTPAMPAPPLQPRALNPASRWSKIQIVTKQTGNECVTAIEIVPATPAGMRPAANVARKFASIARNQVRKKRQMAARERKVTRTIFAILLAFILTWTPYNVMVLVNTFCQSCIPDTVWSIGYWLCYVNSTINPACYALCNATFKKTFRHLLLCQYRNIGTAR
Procedure, shortened: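 Membranes came from recombinant CHO cells expressing human muscarinic subtypes and were incubated with compound and [3H]NMS (1.5 nM) in HEPES/NaCl/MgCl2/EDTA buffer, pH 7.4, at 37° C for 90 min. Twelve-point dose-response (printed 10–[…]). Filter-bound radioactivity was counted and Ki values derived.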

[5] = target: human M5 receptor (Homo sapiens (Human), UniProt P08912); test: Radioligand (tritiated N-methylscopolamine) binding assay, M5; conditions: CHO cell membranes expressing human M5; 1.5 nM tritiated N-methylscopolamine; 90 min, 37° C.; read-out: Ki against M5 receptor (Table 21, M5)
Sequence of human M5 receptor (P08912 whole entry): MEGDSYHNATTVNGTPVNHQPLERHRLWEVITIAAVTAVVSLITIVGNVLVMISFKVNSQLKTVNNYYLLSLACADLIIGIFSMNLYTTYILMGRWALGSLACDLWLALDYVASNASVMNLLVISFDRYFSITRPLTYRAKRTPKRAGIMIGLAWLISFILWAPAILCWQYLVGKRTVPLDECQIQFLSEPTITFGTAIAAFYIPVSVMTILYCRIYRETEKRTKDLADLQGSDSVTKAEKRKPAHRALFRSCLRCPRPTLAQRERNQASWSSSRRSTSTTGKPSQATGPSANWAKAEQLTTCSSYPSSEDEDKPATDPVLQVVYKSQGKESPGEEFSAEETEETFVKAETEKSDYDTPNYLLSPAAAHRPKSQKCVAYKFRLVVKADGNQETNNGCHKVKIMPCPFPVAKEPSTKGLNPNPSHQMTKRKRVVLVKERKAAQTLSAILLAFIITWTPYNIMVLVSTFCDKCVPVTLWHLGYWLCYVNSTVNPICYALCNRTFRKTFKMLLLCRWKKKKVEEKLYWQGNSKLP
Protocol: as §1

Ki [1] [nM] | Ki [2] [nM] | Ki [3] [nM] | Ki [4] [nM] | Ki [5] [nM] | SMILES
100 to 1000 | 10 to 100 | 100 to 1000 | < 10 | > 1000 | C[C@H]1CN(c2ccc(OC(F)(F)F)c(C#N)c2)CCN1C(=O)NCCC1CCN(Cc2ccccc2)CC1 [4-21, (2S)-N-[2-(1-benzylpiperidin-4-yl)ethyl]-4-[3-cyano-4-(trifluoromethoxy)phenyl]-2-methylpiperazine-1-carboxamide]
100 to 1000 | 10 to 100 | > 1000 | < 10 | > 1000 | CNc1nc(N2CCN(C(=O)NCCC3CCN(Cc4ccccc4)CC3)[C@H](C)C2)ncc1C#N [5-23, (2R)-N-[2-(1-benzylpiperidin-4-yl)ethyl]-4-[5-cyano-4-(methylamino)pyrimidin-2-yl]-2-methylpiperazine-1-carboxamide]
> 1000 | > 1000 | > 1000 | < 10 | > 1000 | C[C@@H]1CN(c2ccc(F)c(C#N)c2)CCN1C(=O)NC[C@@H](O)C1CCN(Cc2ccccc2)CC1 [3-18, (2R)-N-[(2S)-2-(1-benzylpiperidin-4-yl)-2-hydroxyethyl]-4-(3-cyano-4-fluorophenyl)-2-methylpiperazine-1-carboxamide]
100 to 1000 | 10 to 100 | 100 to 1000 | < 10 | 100 to 1000 | C[C@@H]1CN(c2cc(F)c(Cl)c(F)c2)CCN1C(=O)NCCC1CCN(Cc2ccccc2)CC1 [22-13]
100 to 1000 | 10 to 100 | > 1000 | < 10 | > 1000 | N#Cc1cc(N2CCC(C(=O)NCCC3CCN(Cc4ccccc4)CC3)CC2)ccc1OC(F)(F)F [10-57, N-[2-(1-benzylpiperidin-4-yl)ethyl]-1-[3-cyano-4-(trifluoromethoxy)phenyl]piperidine-4-carboxamide]
> 1000 | 100 to 1000 | > 1000 | < 10 | > 1000 | C[C@@H]1CN(c2cc(F)c(C#N)cc2F)CCN1C(=O)NCCC1CCN(Cc2ccccc2)CC1 [22-10]
> 1000 | 10 to 100 | > 1000 | < 10 | 100 to 1000 | C[C@@H]1CN(c2cc(F)c(C#N)c(F)c2)CCN1C(=O)NCCC1CCN(Cc2ccccc2)CC1 [22-12]
> 1000 | 100 to 1000 | > 1000 | < 10 | > 1000 | C[C@@H]1CN(c2cc(F)c(F)c(F)c2)CCN1C(=O)NC[C@@H](O)C1CCN(Cc2ccccc2)CC1 [3-22, (2R)-N-[(2S)-2-(1-benzylpiperidin-4-yl)-2-hydroxyethyl]-2-methyl-4-(3,4,5-trifluorophenyl)piperazine-1-carboxamide]
100 to 1000 | 10 to 100 | > 1000 | < 10 | > 1000 | C[C@@H]1CN(c2cc(F)c(F)c(F)c2)CCN1C(=O)NCCC1CCN(Cc2ccccc2)CC1 [3-12, (2R)-N-[2-(1-benzylpiperidin-4-yl)ethyl]-2-methyl-4-(3,4,5-trifluorophenyl)piperazine-1-carboxamide]
100 to 1000 | 10 to 100 | > 1000 | < 10 | > 1000 | O=C(NCCC1CCN(Cc2ccccc2)CC1)N1CCN(c2ncc(C(F)(F)F)cn2)CC1 [5-24, N-[2-(1-benzylpiperidin-4-yl)ethyl]-4-[5-(trifluoromethyl)pyrimidin-2-yl]piperazine-1-carboxamide]
100 to 1000 | 100 to 1000 | > 1000 | < 10 | > 1000 | C[C@@H]1CN(c2ccc(F)c(C#N)c2)CCN1C(=O)NCCC1CCN(Cc2ccccc2)CC1 [4-1, (2R)-N-[2-(1-benzylpiperidin-4-yl)ethyl]-4-(3-cyano-4-fluorophenyl)-2-methylpiperazine-1-carboxamide]
100 to 1000 | 10 to 100 | > 1000 | < 10 | > 1000 | O=C(NCCC1CCN(Cc2ccccc2)CC1)C1CCN(c2ccc3c(c2)OC(F)(F)O3)CC1 [10-5, N-[2-(1-benzylpiperidin-4-yl)ethyl]-1-(2,2-difluoro-2H-1,3-benzodioxol-5-yl)piperidine-4-carboxamide]
100 to 1000 | 10 to 100 | 100 to 1000 | < 10 | > 1000 | C[C@@H]1CN(c2ncc(C(F)(F)F)cn2)CCN1C(=O)NCCC1CCN(Cc2cccc(C#N)c2)CC1 [6-40, (2R)-N-(2-{1-[(3-cyanophenyl)methyl]piperidin-4-yl}ethyl)-2-methyl-4-[5-(trifluoromethyl)pyrimidin-2-yl]piperazine-1-carboxamide]
100 to 1000 | 10 to 100 | > 1000 | < 10 | > 1000 | C[C@@H]1CN(c2cc(F)nc(F)c2)CCN1C(=O)NCCC1CCN(Cc2ccccc2)CC1 [22-30]
> 1000 | 100 to 1000 | > 1000 | < 10 | > 1000 | O=C(NCCC1CCN(Cc2ccccc2)CC1)C1CCN(c2ccc(OC(F)(F)F)cc2)CC1 [9-1, N-[2-(1-benzylpiperidin-4-yl)ethyl]-1-[4-(trifluoromethoxy)phenyl]piperidine-4-carboxamide]
100 to 1000 | 10 to 100 | 100 to 1000 | < 10 | > 1000 | C[C@@H]1CN(c2ccc(OC(F)(F)F)nc2)CCN1C(=O)NCCC1CCN(Cc2ccccc2)CC1 [3-8, (2R)-N-[2-(1-benzylpiperidin-4-yl)ethyl]-2-methyl-4-[6-(trifluoromethoxy)pyridin-3-yl]piperazine-1-carboxamide]
> 1000 | 10 to 100 | > 1000 | < 10 | > 1000 | C[C@@H]1CN(c2ccc(C#N)c(F)c2)C[C@H](C)N1C(=O)NCCC1CCN(Cc2ccccc2)CC1 [22-4]
100 to 1000 | 10 to 100 | 100 to 1000 | < 10 | > 1000 | Cc1ccccc1CN1CCC(CCNC(=O)N2CCN(c3ncc(C(F)(F)F)cn3)C[C@H]2C)CC1 [6-35, (2R)-2-methyl-N-(2-{1-[(2-methylphenyl)methyl]piperidin-4-yl}ethyl)-4-[5-(trifluoromethyl)pyrimidin-2-yl]piperazine-1-carboxamide]
100 to 1000 | 10 to 100 | > 1000 | < 10 | > 1000 | C[C@@H]1CN(c2nc(Cl)cc(C#N)n2)C[C@H](C)N1C(=O)NCCC1CCN(Cc2ccccc2)CC1 [4-11, (2S,6R)-N-[2-(1-benzylpiperidin-4-yl)ethyl]-4-(4-chloro-6-cyanopyrimidin-2-yl)-2,6-dimethylpiperazine-1-carboxamide]
> 1000 | 100 to 1000 | > 1000 | < 10 | > 1000 | Cc1c(C(=O)NCCC2CCN(Cc3ccccc3)CC2)cnc2cc(-c3cccc(OC(F)(F)F)c3)nn12 [18-16]
100 to 1000 | 10 to 100 | > 1000 | < 10 | > 1000 | C[C@@H]1CN(c2ncc(C(F)(F)F)cn2)CCN1C(=O)NCCC1CCN(Cc2ccc(F)cc2)CC1 [6-37, (2R)-N-(2-{1-[(4-fluorophenyl)methyl]piperidin-4-yl}ethyl)-2-methyl-4-[5-(trifluoromethyl)pyrimidin-2-yl]piperazine-1-carboxamide]
100 to 1000 | < 10 | 100 to 1000 | < 10 | 100 to 1000 | C[C@@H]1CN(c2cc(F)c(F)c(F)c2)CCN1C(=O)NCCC1CCN(Cc2ccc3[nH]ccc3c2)CC1 [6-1, (2R)-N-{2-[1-(1H-indol-5-ylmethyl)piperidin-4-yl]ethyl}-2-methyl-4-(3,4,5-trifluorophenyl)piperazine-1-carboxamide]
> 1000 | 100 to 1000 | > 1000 | < 10 | > 1000 | C[C@@H]1CN(c2ccc(OC(F)(F)F)c(C#N)c2)CCN1C(=O)NC[C@@H](O)C1CCN(Cc2ccccc2)CC1 [3-21, (2R)-N-[(2S)-2-(1-benzylpiperidin-4-yl)-2-hydroxyethyl]-4-[3-cyano-4-(trifluoromethoxy)phenyl]-2-methylpiperazine-1-carboxamide]
